# Data reported in ChEMBL document CHEMBL2057199, “Development of novel M1 antagonist scaffolds through the continued optimization of the MLPCN probe ML012” (Bioorg Med Chem Lett, 2012).
# Calls of active or inactive are those of the source. The calls are words filed in the database; no cut-off is given here.
# Tests used:
# Cytochrome P450 3A4 = Cytochrome P450 3A4 (Homo sapiens, UniProt P08684); test: Inhibition of CPY3A4
# Cytochrome P450 2C9 = Cytochrome P450 2C9 (Homo sapiens, UniProt P11712); test: Inhibition of CPY2C9
# Sequence of Cytochrome P450 2C9 (P11712 whole entry): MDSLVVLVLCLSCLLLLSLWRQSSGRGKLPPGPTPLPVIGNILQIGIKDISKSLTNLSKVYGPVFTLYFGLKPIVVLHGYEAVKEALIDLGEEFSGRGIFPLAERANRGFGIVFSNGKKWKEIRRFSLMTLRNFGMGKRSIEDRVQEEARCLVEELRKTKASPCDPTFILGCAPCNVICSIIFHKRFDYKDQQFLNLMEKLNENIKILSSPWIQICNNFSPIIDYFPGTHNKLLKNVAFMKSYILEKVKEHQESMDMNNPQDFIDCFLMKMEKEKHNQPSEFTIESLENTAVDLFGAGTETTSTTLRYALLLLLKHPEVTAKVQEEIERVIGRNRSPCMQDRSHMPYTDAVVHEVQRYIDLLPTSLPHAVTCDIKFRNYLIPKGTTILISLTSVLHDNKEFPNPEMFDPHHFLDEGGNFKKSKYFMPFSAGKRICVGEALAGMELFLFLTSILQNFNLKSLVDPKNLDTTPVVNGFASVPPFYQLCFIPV
# Plasma [1] = test: Fraction unbound in human plasma; format: ADME, cell-free
# Plasma [2] = test: Fraction unbound in rat plasma; format: ADME, cell-free
# [3] = target: T1, Muscarinic acetylcholine receptor M1 (Homo sapiens) (UniProt P11229); test: (§1) Antagonist activity at human muscarinic M1 receptor expressed in CHO cells assessed as inhibition of acetylcholine-induced calcium mobilization by fluorescence analysis; format: functional, cell-based
# T1 sequence (whole entry): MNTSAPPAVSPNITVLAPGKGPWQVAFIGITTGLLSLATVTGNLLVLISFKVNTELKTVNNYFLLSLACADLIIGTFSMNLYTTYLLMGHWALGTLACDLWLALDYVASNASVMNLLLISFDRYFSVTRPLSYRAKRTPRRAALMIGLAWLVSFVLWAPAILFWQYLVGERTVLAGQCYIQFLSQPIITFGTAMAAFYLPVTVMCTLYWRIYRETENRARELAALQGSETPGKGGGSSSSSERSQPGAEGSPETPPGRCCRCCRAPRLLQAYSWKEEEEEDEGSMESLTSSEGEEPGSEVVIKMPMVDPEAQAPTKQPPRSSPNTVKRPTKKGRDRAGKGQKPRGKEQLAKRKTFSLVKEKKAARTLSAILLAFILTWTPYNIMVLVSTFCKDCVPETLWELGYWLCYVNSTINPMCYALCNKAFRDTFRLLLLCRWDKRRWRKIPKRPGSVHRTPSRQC
# [4] = target: T2, Muscarinic acetylcholine receptor M1 (Homo sapiens, UniProt P11229); test: as §1; format: functional, cell-based; conditions: read-out: IC50
# T2 sequence (P11229 whole entry): T1 sequence (whole entry)
# [5] = target: T3, Muscarinic acetylcholine receptor M5 (Homo sapiens, UniProt P08912); test: Antagonist activity at human muscarinic M5 receptor assessed as inhibition of acetylcholine-induced calcium mobilization; format: functional
# T3 sequence (P08912 whole entry): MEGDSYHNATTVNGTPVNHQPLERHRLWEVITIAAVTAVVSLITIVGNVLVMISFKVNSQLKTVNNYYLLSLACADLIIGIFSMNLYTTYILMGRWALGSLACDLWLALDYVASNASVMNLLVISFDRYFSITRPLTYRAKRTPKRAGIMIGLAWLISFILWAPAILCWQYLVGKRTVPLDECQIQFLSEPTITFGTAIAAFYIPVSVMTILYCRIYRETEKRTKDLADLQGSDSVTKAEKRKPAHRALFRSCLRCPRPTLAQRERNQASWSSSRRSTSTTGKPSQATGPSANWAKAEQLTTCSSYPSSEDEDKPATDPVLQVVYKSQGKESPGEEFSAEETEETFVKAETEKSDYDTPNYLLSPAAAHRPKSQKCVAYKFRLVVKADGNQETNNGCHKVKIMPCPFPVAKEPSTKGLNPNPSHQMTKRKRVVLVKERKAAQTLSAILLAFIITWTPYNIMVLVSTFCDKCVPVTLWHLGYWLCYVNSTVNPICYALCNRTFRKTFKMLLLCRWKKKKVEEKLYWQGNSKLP
# Cytochrome P450 2D6 = Cytochrome P450 2D6 (Homo sapiens, UniProt P10635); test: Inhibition of CPY2D6
# Sequence of Cytochrome P450 2D6 (P10635 whole entry): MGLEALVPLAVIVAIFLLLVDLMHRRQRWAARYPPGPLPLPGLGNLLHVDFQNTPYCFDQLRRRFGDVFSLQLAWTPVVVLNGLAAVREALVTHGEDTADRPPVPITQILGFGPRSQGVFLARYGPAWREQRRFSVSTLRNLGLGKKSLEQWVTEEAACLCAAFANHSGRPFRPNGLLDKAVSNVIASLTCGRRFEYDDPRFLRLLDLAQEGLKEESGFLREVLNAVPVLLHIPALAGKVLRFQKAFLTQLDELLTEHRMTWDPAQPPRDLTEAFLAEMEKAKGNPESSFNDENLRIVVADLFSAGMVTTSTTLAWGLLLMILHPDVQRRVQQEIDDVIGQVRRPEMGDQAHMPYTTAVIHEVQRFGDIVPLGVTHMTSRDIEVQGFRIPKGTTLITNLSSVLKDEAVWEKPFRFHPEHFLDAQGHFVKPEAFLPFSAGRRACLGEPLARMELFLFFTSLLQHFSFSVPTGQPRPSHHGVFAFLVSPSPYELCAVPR
# [6] = target: T1, Muscarinic acetylcholine receptor M1 (Homo sapiens); test: Displacement of [3H]NMS from human muscarinic M1 receptor
# [7] = target: T1, Muscarinic acetylcholine receptor M1 (Homo sapiens); test: Antagonist activity at human muscarinic M1 receptor assessed as rightward shift in acetylcholine concentration response curve; format: functional
# [8] = target: T1, Muscarinic acetylcholine receptor M1 (Homo sapiens); test: Antagonist activity at human muscarinic M1 receptor expressed in CHO cells assessed as inhibition of acetylcholine-induced calcium mobilization at 30 uM measured after 15 mins by fluorescence analysis; format: functional, cell-based; design: scale not given: the % may be the effect or the level left
# [9] = Plasma clearance in iv dosed rat; format: ADME, organism-based
# [10] = target: T4, Muscarinic acetylcholine receptor M4 (Homo sapiens, UniProt P08173); test: Antagonist activity at human muscarinic M4 receptor assessed as inhibition of acetylcholine-induced calcium mobilization; format: functional
# T4 sequence (P08173 whole entry): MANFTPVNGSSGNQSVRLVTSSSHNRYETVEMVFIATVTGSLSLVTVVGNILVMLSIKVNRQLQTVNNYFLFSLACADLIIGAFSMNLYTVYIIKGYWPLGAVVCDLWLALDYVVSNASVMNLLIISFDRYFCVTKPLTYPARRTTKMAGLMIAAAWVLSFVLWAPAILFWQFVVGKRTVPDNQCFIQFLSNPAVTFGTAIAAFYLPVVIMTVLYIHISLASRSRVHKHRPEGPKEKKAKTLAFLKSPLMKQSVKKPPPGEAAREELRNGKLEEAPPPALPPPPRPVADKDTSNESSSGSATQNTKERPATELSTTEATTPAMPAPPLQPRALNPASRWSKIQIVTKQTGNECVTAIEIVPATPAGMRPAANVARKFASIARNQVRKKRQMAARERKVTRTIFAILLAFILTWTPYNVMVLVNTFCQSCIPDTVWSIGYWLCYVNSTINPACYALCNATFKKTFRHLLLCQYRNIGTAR
# [11] = target: T5, Muscarinic acetylcholine receptor M2 (Homo sapiens, UniProt P08172); test: Antagonist activity at human muscarinic M2 receptor assessed as inhibition of acetylcholine-induced calcium mobilization; format: functional
# T5 sequence (P08172 whole entry): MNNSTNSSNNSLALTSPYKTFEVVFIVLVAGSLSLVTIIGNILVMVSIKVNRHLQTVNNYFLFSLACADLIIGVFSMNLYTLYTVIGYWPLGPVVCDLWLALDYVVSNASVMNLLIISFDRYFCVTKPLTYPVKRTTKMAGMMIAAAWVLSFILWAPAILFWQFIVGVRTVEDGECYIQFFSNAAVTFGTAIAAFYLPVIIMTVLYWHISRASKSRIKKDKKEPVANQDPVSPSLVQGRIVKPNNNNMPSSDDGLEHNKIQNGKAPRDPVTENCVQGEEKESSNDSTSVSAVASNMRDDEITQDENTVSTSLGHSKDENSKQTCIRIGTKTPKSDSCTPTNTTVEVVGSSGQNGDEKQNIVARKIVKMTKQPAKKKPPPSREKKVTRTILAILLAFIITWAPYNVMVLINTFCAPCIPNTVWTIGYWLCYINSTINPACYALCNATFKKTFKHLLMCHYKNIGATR
# Cytochrome P450 1A2 = target: T6, Cytochrome P450 1A2 (Homo sapiens, UniProt P05177); test: Inhibition of CPY1A2
# T6 sequence (P05177 whole entry): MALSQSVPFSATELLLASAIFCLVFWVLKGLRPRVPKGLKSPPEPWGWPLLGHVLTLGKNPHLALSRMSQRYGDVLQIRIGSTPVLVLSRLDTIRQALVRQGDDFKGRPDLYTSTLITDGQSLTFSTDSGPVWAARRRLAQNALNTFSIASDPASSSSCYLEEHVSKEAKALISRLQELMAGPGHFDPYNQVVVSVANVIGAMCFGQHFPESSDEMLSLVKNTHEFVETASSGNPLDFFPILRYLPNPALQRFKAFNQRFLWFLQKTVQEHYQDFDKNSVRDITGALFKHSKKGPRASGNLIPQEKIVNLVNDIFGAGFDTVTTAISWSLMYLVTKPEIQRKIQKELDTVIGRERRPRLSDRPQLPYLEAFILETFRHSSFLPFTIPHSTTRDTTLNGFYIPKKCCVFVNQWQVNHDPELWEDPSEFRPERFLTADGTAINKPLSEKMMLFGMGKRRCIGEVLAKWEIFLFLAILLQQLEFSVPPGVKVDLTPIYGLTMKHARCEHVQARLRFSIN
# Brain = test: Fraction unbound in rat brain homogenate; format: ADME, tissue-based
# [12] = target: Muscarinic acetylcholine receptor M3 (Homo sapiens, UniProt P20309); test: Antagonist activity at human muscarinic M3 receptor assessed as inhibition of acetylcholine-induced calcium mobilization; format: functional
# Sequence of Muscarinic acetylcholine receptor M3 (P20309 whole entry): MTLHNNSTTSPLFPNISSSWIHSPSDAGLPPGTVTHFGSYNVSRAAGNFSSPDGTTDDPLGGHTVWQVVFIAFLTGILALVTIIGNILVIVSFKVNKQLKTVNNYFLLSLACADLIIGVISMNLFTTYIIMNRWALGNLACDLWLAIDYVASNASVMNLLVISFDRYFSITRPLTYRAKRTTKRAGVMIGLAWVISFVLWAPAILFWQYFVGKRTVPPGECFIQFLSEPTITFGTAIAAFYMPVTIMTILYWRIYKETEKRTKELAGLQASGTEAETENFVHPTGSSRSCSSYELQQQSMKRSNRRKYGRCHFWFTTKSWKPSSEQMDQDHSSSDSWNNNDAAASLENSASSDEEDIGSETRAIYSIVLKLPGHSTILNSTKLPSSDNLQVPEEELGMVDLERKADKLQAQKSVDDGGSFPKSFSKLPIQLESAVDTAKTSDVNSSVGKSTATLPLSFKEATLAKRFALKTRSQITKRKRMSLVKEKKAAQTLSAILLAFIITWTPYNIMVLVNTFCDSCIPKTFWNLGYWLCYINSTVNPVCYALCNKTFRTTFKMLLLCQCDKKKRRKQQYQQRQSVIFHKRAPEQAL
# Sequence of Cytochrome P450 3A4 (P08684 whole entry): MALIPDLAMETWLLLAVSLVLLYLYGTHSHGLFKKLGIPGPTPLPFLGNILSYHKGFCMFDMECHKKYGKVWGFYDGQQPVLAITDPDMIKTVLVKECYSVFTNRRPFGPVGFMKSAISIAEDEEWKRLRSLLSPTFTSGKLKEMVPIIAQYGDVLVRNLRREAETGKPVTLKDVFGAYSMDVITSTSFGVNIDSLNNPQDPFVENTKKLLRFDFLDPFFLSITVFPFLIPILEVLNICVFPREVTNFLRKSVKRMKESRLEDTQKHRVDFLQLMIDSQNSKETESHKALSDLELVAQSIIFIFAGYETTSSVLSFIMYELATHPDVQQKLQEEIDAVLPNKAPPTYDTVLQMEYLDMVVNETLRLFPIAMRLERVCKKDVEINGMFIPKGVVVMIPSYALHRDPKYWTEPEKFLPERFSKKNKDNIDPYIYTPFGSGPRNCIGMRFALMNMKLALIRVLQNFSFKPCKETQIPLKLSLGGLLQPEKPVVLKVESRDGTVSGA
smiles,measurement,setting,value
O=C(C1CN(S(=O)(=O)c2cccc3cnccc23)C1)N1CC2CN(c3ccncc3)CC2C1 (configuration not stated),IC50,Cytochrome P450 3A4,< 2.5 µM
same,IC50,Cytochrome P450 2C9,< 2.5 µM
same,Fu,Plasma [1],0.9%
same,Fu,Plasma [2],0.6%
same,inhibition,[3],Dose-dependent effect
same,IC50,[4],0.23 µM
same,IC50,[5],> 10 µM
same,IC50,Cytochrome P450 2D6,< 2.5 µM
same,Activity,[6],Active
same,Activity,[7],Active
same,Activity,[8],2.8%
same,clearance,[9],68.6 mL/min/kg
same,IC50,[10],> 10 µM
same,IC50,[11],> 10 µM
same,IC50,Cytochrome P450 1A2,> 30 µM
same,Fu,Brain,0.08%
same,IC50,[12],> 10 µM
